{
  "source": "patent US7875601B2",
  "about": "“Cancer treatment with epothilones” (Novartis AG, priority 1998, dated 2011)",
  "key": {"[1]": {"test_system": "human COLO 205 colon tumors", "type": "in vivo, female BALB/c nude mice", "conditions": "4 mg/kg, day 32", "protocol": "Female or male BALB/c nu/nu (nude) mice are kept under sterile conditions (10 to 12 mice per Type III cage) with free access to food and water. Mice weigh between 20 and 25 grams at the time of tumor implantation. Tumors are established by subcutaneous injection of cells (minimum 2×10^6 cells in 100 μl PBS or medium) in carrier mice (4-8 mice per cell line). The resulting tumors are serially passaged for a minimum of three consecutive transplantations prior to start of treatment. Tumor fragments (approx. 25 mg) are implanted s.c. into the left flank of animals with a 13-gauge trocar needle while the mice are exposed to Forene (Abbott, Switzerland) anesthesia.\nTumor growth and body weights are monitored once or twice weekly. All treatments are administered intravenously (i.v.) and are initiated when a mean tumor volume of approximately 100 to 250 mm^3 is attained, depending upon the tumor type. Tumor volumes are determined using the formula […] (see Cancer Chemother. Pharmacol. 24:148-154, [1989]). Treatments with epothilone B vary the dose and the frequency of administration. Comparator agents are administered according to previously determined optimal treatment regimens. In addition to presenting changes in tumor volumes over the course of treatment, antitumor activity is expressed as T/C % (mean increase of tumor volumes of treated animals divided by the mean increase of tumor volumes of control animals multiplied by 100). Tumor. regression (%) represents the smallest mean tumor volume compared to the mean tumor volume at the start of treatment, according to the formula Regression (%)=(1−Vend/Vstart)×100(Vend=final mean tumor volume, Vstart=mean tumor volume at the start of treatment. Any animals in which the tumor has reached a size exceeding approximately 1.5 to 2.5 cm^3 are sacrificed. Details can be found below."}, "[2]": {"assay": "Two-week intravenous toxicity study in mice", "type": "in vivo, normal female BALB/c mice", "protocol": "In order to assess the sub-chronic intravenous toxicity of epothilone B, a non-GLP two-week i.v. toxicity study in non-tumor bearing, normal female BALB/c mice is conducted, involving analysis of mortality, clinical signs, body weight, food consumption, hematology, clinical biochemistry, urinalysis, and organ weights as well as macro and microscopic examinations. The study is based on two different dosing regiments of epothilone B of 3 mg/kg and 10 mg/kg, respectively, administered on days 1 and 8 (8 animals per group). Half of the animals are killed on day 15 (main group) and necropsy is performed. For the other half (recovery group) a recovery period of 5 weeks is allowed after administration of the second dose before sacrifice and subsequent necropsy on day 43."}, "[3]": {"assay": "GLP toxicology study in dogs", "type": "in vivo", "conditions": "dog", "source_text": "Inclusion Criteria • The following criteria must be met for inclusion into the study: • 1. Male or female patients >18 years of age. • 2. […] At least one measurable, evaluable, or non-evaluable site of disease as defined by Southwestern Oncology Group (SWOG) Solid Tumor Response Criteria including tumor marker value that is above the institutional upper limit of normal. • 4. Women of childbearing potential must have a negative serum β-HCG pregnancy test prior to the initiation of study drug. Male and female patients of reproductive potential must agree to employ an effective method of birth control throughout the study and for up to 3 months following discontinuation of study drug. • 5. World Health Organization (WHO) Performance Status Score of ≦2. • 6. Life expectancy of at least 3 months. • 7. Written informed consent is obtained prior to any screening procedures. Exclusion Criteria • Exclusion from the study is required if any of the following apply: • 1. Female patients who are pregnant or breast-feeding. Postmenopausal women must be amenorrheic for at least 12 months to be considered of non-childbearing potential. • 2. […] This dose is calculated as one-third of the toxic dose low (TDL) in the most sensitive species studied which, for epothilone B, is the dog. […]"}, "[4]": {"conditions": "3 mg/kg i.v. on days 1 and 8, day 15"}, "[5]": {"conditions": "10 mg/kg i.v. on days 1 and 8, day 15"}, "[6]": {"conditions": "both dose levels (3 and 10 mg/kg), day 15"}},
  "note": "“Also recorded” adds a separate entry of the source. Where two headings read alike, the source gives them in different places.",
  "data": [
    {"smiles": "C/C(=C\\c1csc(C)n1)[C@@H]1C[C@@H]2O[C@]2(C)CCC[C@H](C)[C@H](O)[C@@H](C)C(=O)C(C)(C)[C@@H](O)CC(=O)O1", "note": "[epothilone B]", "values": [
      {"measurement": "T/C", "setting": "[1]; i.v. every 7 days (days 14, 21, 28)", "result": "Regressions"},
      {"measurement": "% Body Weight Change", "setting": "[1]; i.v. every 7 days", "result": "−18 ± 1", "unit": "%"},
      {"measurement": "Regression", "setting": "[1]; i.v. every 7 days", "result": "−87", "unit": "%"},
      {"measurement": "Survival (No. alive/total)", "setting": "[1]; i.v. every 7 days", "result": "5/7"},
      {"measurement": "Δ Body Weight", "setting": "[1]; i.v. every 7 days", "result": "-4.0 ± 0.2", "unit": "g"},
      {"measurement": "Δ Tumor Volume (mm^3)", "setting": "[1]; i.v. every 7 days", "result": "−83 ± 7", "unit": "mm^3"},
      {"measurement": "T/C", "setting": "[1]; i.v. every 14 days (days 14 and 28)", "result": "Regressions"},
      {"measurement": "% Body Weight Change", "setting": "[1]; i.v. every 14 days", "result": "−4 ± 4", "unit": "%"},
      {"measurement": "Regression", "setting": "[1]; i.v. every 14 days", "result": "−69", "unit": "%"},
      {"measurement": "Survival (No. alive/total)", "setting": "[1]; i.v. every 14 days", "result": "7/7"},
      {"measurement": "Δ Body Weight", "setting": "[1]; i.v. every 14 days", "result": "-1.1 ± 1.0", "unit": "g"},
      {"measurement": "Δ Tumor Volume (mm^3)", "setting": "[1]; i.v. every 14 days", "result": "−62 ± 7", "unit": "mm^3"},
      {"measurement": "% Body Weight Change", "setting": "[1]; i.v. once", "result": "9 ± 1", "unit": "%"},
      {"measurement": "Regression", "setting": "[1]; i.v. once", "result": "−66", "unit": "%"},
      {"measurement": "Survival (No. alive/total)", "setting": "[1]; i.v. once", "result": "5/7"},
      {"measurement": "T/C", "setting": "[1]; i.v. once", "result": "Regressions"},
      {"measurement": "Δ Body Weight", "setting": "[1]; i.v. once", "result": "2.0 ± 0.1", "unit": "g"},
      {"measurement": "Δ Tumor Volume (mm^3)", "setting": "[1]; i.v. once", "result": "−58 ± 11", "unit": "mm^3"},
      {"measurement": "body weight loss", "setting": "[2]; 3 mg/kg i.v. on days 1 and 8", "result": "only apparent in the second week"},
      {"measurement": "atrophy of the thymus", "setting": "[2]; [4]", "result": "moderate"},
      {"measurement": "number of leukocytes, especially neutrophils and lymphocytes", "setting": "[2]; [4]", "result": "reduction in the number of leukocytes"},
      {"measurement": "sternal bone marrow histology", "setting": "[2]; [4]", "result": "minimal to slight erythroid and myeloid atrophy"},
      {"measurement": "organ weights at the end of the recovery period", "setting": "[2]; 3 mg/kg i.v. on days 1 and 8, day 43", "result": "comparable to those of control animals"},
      {"measurement": "mortalities throughout the treatment period", "setting": "[2]; 3 mg/kg i.v. on days 1 and 8, days 1-14", "result": "No mortalities"},
      {"measurement": "survival of the recovery group", "setting": "[2]; 3 mg/kg i.v. on days 1 and 8, up to day 43", "result": "all animals of the recovery group survive until the end of the study; also recorded: tolerated without mortality"},
      {"measurement": "hematological parameters at the end of the recovery period", "setting": "[2]; 3 mg/kg recovery group, day 43", "result": "normal for two out of the four animals"},
      {"measurement": "survival of the recovery group", "setting": "[2]; 10 mg/kg i.v. on days 1 and 8", "result": "all animals of the recovery group have to be sacrificed prematurely on day 19; also recorded: death (or sacrifice) of all treated animals"},
      {"measurement": "atrophy of the thymus", "setting": "[2]; [5]", "result": "marked"},
      {"measurement": "number of leukocytes, especially neutrophils and lymphocytes", "setting": "[2]; [5]", "result": "reduction in the number of leukocytes"},
      {"measurement": "spleen histology", "setting": "[2]; [5]", "result": "minimal lymphoid atrophy"},
      {"measurement": "sternal bone marrow histology", "setting": "[2]; [5]", "result": "minimal to slight myeloid hypoplasia"},
      {"measurement": "mortalities throughout the treatment period", "setting": "[2]; 10 mg/kg i.v. on days 1 and 8, days 1-14", "result": "No mortalities"},
      {"measurement": "body weight loss", "setting": "[2]; 10 mg/kg i.v. on days 1 and 8, first and second week", "result": "Body weight loss is observed for all animals"},
      {"measurement": "clinical chemistry profile", "setting": "[2]; 3 and 10 mg/kg i.v. on days 1 and 8", "result": "Only minor changes"},
      {"measurement": "intestinal mucosa (small and large intestine) histology", "setting": "[2]; [6]", "result": "Minimal single cell necrosis"},
      {"measurement": "organ weights", "setting": "[2]; [6]", "result": "pronounced changes in thymus, spleen, and uterus weights"},
      {"measurement": "Mortalities", "setting": "[3]; 0.1 mg/kg, repeated once 3 weeks later", "result": "no mortalities"},
      {"measurement": "toxic dose low (TDL)", "setting": "[3]; most sensitive species, estimated", "result": "~0.65", "unit": "mg/kg"}
    ]}
  ]
}
